This note sets out measurements from US20100212218A1, “5-(SUBSTITUTED METHYL) 2-METHYLFURAN” (FURANIX TECHNOLOGIES B.V., priority 2007, published 2010).

The nature of the data set: Fuel solubility: miscibility in blends with commercial diesel. The format is physicochemical. From the text: Fuel solubility is a primary concern for diesel fuel applications. Not all highly polar oxygenates have good solubility in the current commercial diesel fuels.
Where [1] appears, read: all blend ratios with commercial diesel.

With `CCOCc1ccc(C)o1` [5-(ethoxymethyl)-2-methylfuran], the “miscibility with commercial diesel” value under setting [1] is reported as “miscible in all blend ratio's”.
On to `Cc1ccc(COC(C)(C)C)o1` [5-(tertbutoxymethyl)-2-methylfuran], for which, under setting [1], the “miscibility with commercial diesel” value is listed as “miscible in all blend ratio's”.
In the case of `CCOCc1ccc(C=O)o1` [EMF, 5-(ethoxymethyl)furfural], the “miscibility with commercial diesel” value is “completely miscible” (5 vol % blend with commercial diesel), “phase separation occurs” (25 vol % blend with commercial diesel) and “phase separation occurs” (40 vol % blend with commercial diesel).
